Reference: patent US20230339916A1, “PLANT GROWTH REGULATOR COMPOUNDS” (SYNGENTA CROP PROTECTION AG, priority 2020, published 2023)
pIC50: −log10 of the molar value.

Test system: Corn leaf discs (variety Multitop)
Assay: Dark induced senescence of corn leaf
Type: in vivo
Conditions: Zea mays, foliar, 192 h; corn leaf discs in the dark, 23° C., 75% humidity, 8 days; 100 μM-0.0001 μM, 0.5% DMSO; image analysis; read-out: IC50 (concentration at which 50% senescence was achieved)
Experimental: Corn plants of variety Multitop were grown in a greenhouse with relative 75% humidity and at 23-25° C. for 6 weeks. 1.4 cm diameter leaf discs were placed into 24-well plates containing test compounds in a concentration gradient (100 μM-0.0001 μM) at a final concentration of 0.5% DMSO. Each concentration was tested in 12 replicates. Plates were sealed with seal foil. The foil was pierced to provide gas exchange in each well. The plates were placed into the completely dark climatic chamber. Plates were incubated in the chamber with 75% humidity and at 23° C. for 8 days. On days 0, 5, 6, 7 and 8 photographs were taken of each plate, and image analysis conducted with a macro developed using the ImageJ software. The image analysis was used to determine the concentration at which 50% senescence was achieved (IC50), see Table 3. The lower the value, the higher senescence induction potency.

Row | Compound | pIC50
1 | CCOC(=O)/C(=C/OC1OC(=O)C(C)=C1C)n1c(=O)oc2ccccc21 (stereo not shown) [Compound I-69-Z, ethyl (Z)-3-[(3,4-dimethyl-5-oxo-2H-furan-2-yl)oxy]-2-(2-oxo-1,3-benzoxazol-3-yl)prop-2-enoate] | > 5.52
2 | CCOC(=O)/C(=C/OC1C=C(C)C(=O)O1)N1CCc2ccccc21 (stereo not shown) [Compound I-70-Z, ethyl (Z)-2-indolin-1-yl-3-[(4-methyl-5-oxo-2H-furan-2-yl)oxy]prop-2-enoate] | > 5.52
3 | CCOC(=O)/C(=C/OC1C=C(C)C(=O)O1)N1CCc2cc(Br)ccc21 (stereo not shown) [Compound I-72-Z, ethyl (Z)-2-(5-bromoindolin-1-yl)-3-[(4-methyl-5-oxo-2H-furan-2-yl)oxy]prop-2-enoate] | > 5.52
4 | CCOC(=O)/C(=C/OC1OC(=O)C(C)=C1C)N1CCc2cc(Br)ccc21 (stereo not shown) [Compound I-73-Z, ethyl (Z)-2-(5-bromoindolin-1-yl)-3-[(3,4-dimethyl-5-oxo-2H-furan-2-yl)oxy]prop-2-enoate] | > 5.52
5 | CCOC(=O)/C(=C/OC1C=C(C)C(=O)O1)N1C(=O)CSc2ccccc21 (stereo not shown) [Compound I-78-Z, ethyl (Z)-3-[(4-methyl-5-oxo-2H-furan-2-yl)oxy]-2-(3-oxo-1,4-benzothiazin-4-yl)prop-2-enoate] | > 5.52
6 | CCOC(=O)/C(=C/OC1OC(=O)C(C)=C1C)N1C(=O)CSc2ccccc21 (stereo not shown) [Compound I-79-Z, ethyl (Z)-3-[(3,4-dimethyl-5-oxo-2H-furan-2-yl)oxy]-2-(3-oxo-1,4-benzothiazin-4-yl)prop-2-enoate] | > 5.52
7 | CCOC(=O)/C(=C/OC1C=C(C)C(=O)O1)n1nc(C)c(C)c1C (stereo not shown) [Compound I-80-Z, ethyl (Z)-3-[(4-methyl-5-oxo-2H-furan-2-yl)oxy]-2-(3,4,5-trimethylpyrazol-1-yl)prop-2-enoate] | > 5.52

Further lines, results first:

Row | pIC50 | Compound
8 | > 5.52 | CCOC(=O)/C(=C/OC1OC(=O)C(C)=C1C)n1nc(C)c(C)c1C (stereo not shown) [Compound I-81-Z, ethyl (Z)-3-[(3,4-dimethyl-5-oxo-2H-furan-2-yl)oxy]-2-(3,4,5-trimethylpyrazol-1-yl)prop-2-enoate]
9 | > 5.52 | CNC(=O)/C(=C/OC1C=C(C)C(=O)O1)n1cc(C#N)c2ccccc21 (stereo not shown) [Compound I-82-Z, (Z)-2-(3-cyanoindol-1-yl)-N-methyl-3-[(4-methyl-5-oxo-2H-furan-2-yl)oxy]prop-2-enamide]
10 | > 5.52 | CNC(=O)/C(=C/OC1OC(=O)C(C)=C1C)n1cc(C#N)c2ccccc21 (stereo not shown) [Compound I-83-Z, (Z)-2-(3-cyanoindol-1-yl)-3-[(3,4-dimethyl-5-oxo-2H-furan-2-yl)oxy]-N-methyl-prop-2-enamide]
11 | > 5.52 | CC1=CC(O/C=C(/C(=O)N(C)C)n2cc(C#N)c3ccccc32)OC1=O (stereo not shown) [Compound I-86-Z, (Z)-2-(3-cyanoindol-1-yl)-N,N-dimethyl-3-[(4-methyl-5-oxo-2H-furan-2-yl)oxy]prop-2-enamide]
12 | > 5.52 | CCOC(=O)/C(=C/OC1OC(=O)C(C)=C1OC)n1cc(C#N)c2ccccc21 (stereo not shown) [Compound I-88-Z, ethyl (Z)-2-(3-cyanoindol-1-yl)-3-[(3-methoxy-4-methyl-5-oxo-2H-furan-2-yl)oxy]prop-2-enoate]
13 | > 5.52 | CCOC(=O)/C(=C/OC1OC(=O)C(C)=C1C)n1ccc2nccnc21 (stereo not shown) [Compound I-90-Z, ethyl (Z)-3-[(3,4-dimethyl-5-oxo-2H-furan-2-yl)oxy]-2-pyrrolo[2,3-b]pyrazin-5-yl-prop-2-enoate]
